The values below come from patent US20260062422A1 (Halda Therapeutics OpCo, Inc., priority 2022, published 2026).

Common to all, as to assay type: cell-based
The subject of test [1] is T-Rex 293 cell line SC cells having increased expression of progesterone receptor isoform B protein due to exposure to doxycycline. The test can be described thus: Cellular growth inhibition, T-Rex 293 SC cells with doxycycline (progesterone receptor isoform B induced), Example 47. The conditions noted are these: progesterone receptor isoform B induced with 10 ng/mL doxycycline, 72 hours, CellTiter-Glo 2.0, Table 14 (Example 47). The method, then: (§1) The following types of cells were prepared for this experiment: (i) a T-Rex 293 cell line having increased expression of progesterone receptor isoform B protein due to exposure to doxycycline and (ii) a T-Rex 293 cell line lacking increased expression of progesterone receptor isoform B protein. Ability of the test compounds to inhibit proliferation of the foregoing cell types was evaluated according to the procedures set forth below.
(§2) The doxycycline-inducible progesterone receptor isoform B protein expressing cell line was established using the following protocol: T-Rex 293 cells were purchased from Invitrogen (Cat #R71007) and transfected using Lipofectamine 2000 with the wild-type progesterone receptor B protein sequence cloned into the pcDNA4/TO vector. Transfected cells were selected using 400 μg/mL Zeocin (Invitrogen Cat #R25001). Following selection, single clones were raised and maintained in Dulbecco's Modified Eagle Medium (DMEM) supplemented with 10% w/w Tetracycline-free fetal bovine serum (FBS) and 250 μg/mL Zeocin. Clones were analyzed for expression of progesterone receptor isoform B protein in the presence and absence of 10 ng/mL doxycycline (Sigma Cat #D9891), and a single doxycycline-inducible clone (hereinafter “SC”) was selected for use in downstream assays.
(§3) The SC cells were seeded on poly-D-lysine coated, black clear-bottom 384-well plates at 2500/well, in 25 μL Phenol Red Free Dulbecco's Modified Eagle Medium (DMEM) supplemented with 10% w/w charcoal-dextran treated fetal bovine serum (FBS) and 1% w/w pen-strep, with or without 10 ng/mL doxycycline. Pen-Strep is a commercially available mixture of penicillin G and streptomycin, which is used in mammalian cell culture media to prevent bacterial contamination. Phenol Red Free Dulbecco's Modified Eagle Medium (DMEM) supplemented with 10% w/w charcoal-dextran treated fetal bovine serum (FBS) and 1% w/w pen-strep, with or without 10 ng/mL doxycycline is herein referred to as Treatment Medium. Following seeding of cells in the plates, the plates were spun at 300×g for 30 seconds, then equilibrated to room temperature for 30 minutes, and then deposited in a humidified tissue culture incubator maintained at 37° C. with 5% CO2.
(§4) At 24 hours after seeding of the cells, dilutions of test compound were prepared in DMSO and dissolved in Treatment Medium, to achieve a final DMSO concentration of 0.5% w/w, thereby providing the Test Compound Solution. A 25 μL aliquot of the Test Compound Solution was added to cells in the well plates. An equal volume of a solution containing DMSO and Treatment Medium was used as a negative control. Following treatment of cells with Test Compound Solution or said equal volume of a solution containing DMSO and Treatment Medium, the plates were spun at 300×g for 30 seconds, and then left in an incubator for 72 hours.
(§5) At the end of the treatment duration, cell viability was quantified with CellTiter-Glo 2.0 reagent (Promega Cat #G9243). For this purpose, plates were equilibrated to room temperature for 30 minutes, and then 25 μL of CellTiter-Glo 2.0 reagent was added to cells in the plate wells. Plates were then agitated on a shaker for two minutes at 500 rpm and subsequently incubated at room temperature for 10 minutes. Following incubation, the plates were spun at 3000×g for 30 seconds, then sealed with an optical adhesive cover, and luminescence readings were measured with an EnVision Plate Reader (Perkin Elmer).
(§6) Data was normalized using zero luminescence for baseline. A four-parameter non-linear regression curve fit was applied to dose-response data in GraphPad Prism data analysis software to determine the half-maximal growth inhibitory concentration (GI50) for each test compound.
A general note: ATP-based viability assays read luminescence as a measure of living cells.

Test [2] concerns 22RV1 cells overexpressing FL-AR (22RV1 Parental(FL-AR^hi)). The test can be described thus: 22RV1 apoptosis assay (Caspase-Glo 3/7), cells overexpressing FL-AR. The settings on record: Caspase 3/7 Glo assay. The method, then: 22RV1 Parental and 22RV1/AR cells were seeded in 25 μL growth media in poly-d lysine coated black clear-bottom 384-well plates at 5000 cells/well with Phenol Red Free RPMI containing 10% charcoal stripped serum and 1% PenStrep. Following seeding, plates were spun at 300×g for 30 seconds, then equilibrated to room temperature for 30 minutes, and moved into the incubator. 24 hours after seeding, compounds were titrated in 100% DMSO and diluted in growth medium. 25 μL of the compound/medium mixture was added to cells, bringing the total volume in each well to 50 μL. DMSO was used as a negative control.
After treatment, plates were spun at 300×g for 30 seconds, then cultured at 37° C. with 5% CO2 for 24 or 48 hours in a humidified tissue culture incubator. After 24 or 48 hours of treatment, Caspase 3/7 activity was quantified with Caspase-Glo 3/7 reagent (Promega). Plates were equilibrated to room temperature for 30 minutes, then 25 μL of Caspase-Glo 3/7 reagent was added to cells, bringing the total volume in each well to 75 μL. After reagent was added, plates were spun at 300×g for 30 seconds then mixed on a shaker for two minutes at 500 rpm and then incubated in the dark at room temperature for one hour. Following incubation, plates were spun at 300×g for 30 seconds, sealed with an optical adhesive cover, and luminescence reads were measured with an EnVision Plate Reader. […]

Test [3] in a line: Cellular growth inhibition, T-Rex 293 SC cells with doxycycline (progesterone receptor isoform B induced), Example 47. The conditions noted are these: progesterone receptor isoform B induced with 10 ng/mL doxycycline, 72 hours, CellTiter-Glo 2.0, Table 14 (Example 47). The method, then: as §1, §2, §3, §4, §5, §6

Each structure is given as a SMILES string.

Usually GI50 stands for the concentration that inhibits growth by half. Lower therefore signals greater sensitivity of the cells. For `Cc1sc2c(c1C)C(c1ccc(Cl)cc1)=N[C@@H](CC(=O)NCCCCCOC1CCN(c3ncc(C(=O)N[C@H]4C(C)(C)[C@H](Oc5ccc(C#N)c(Cl)c5)C4(C)C)cn3)CC1)c1nnc(C)n1-2` [Compound I-22, N-((1r,3r)-3-(3-chloro-4-cyanophenoxy)-2,2,4,4-tetramethylcyclobutyl)-2-(4-((5-(2-((S)-4-(4-chlorophenyl)-2,3,9-trimethyl-6H-thieno[3,2-A][1,2,4]triazolo[4,3-a][1,4]diazepin-6-yl)acetamido)pentyl)oxy)piperidin-1-yl)pyrimidine-5-carboxamide], the GI50 in test [1] is over 3000 nM.
Broadly, the EC50 is the concentration that produces a half-maximal response. In the case of `Cc1sc2c(c1C)C(c1ccc(OC3CC4(CCN(c5ncc(C(=O)N[C@H]6C(C)(C)[C@H](Oc7ccc(C#N)c(Cl)c7)C6(C)C)cn5)CC4)C3)cc1)=N[C@@H](Cc1ncco1)c1nnc(C)n1-2` [Compound I-49, N-[3-(3-chloro-4-cyano-phenoxy)-2,2,4,4-tetramethyl-cyclobutyl]-2-[2-[4-[(9S)-4,5,13-trimethyl-9-(oxazol-2-ylmethyl)-3-thia-1,8,11,12-tetrazatricyclo[8.3.0.02,6]trideca-2(6),4,7,10,12-pentaen-7-yl]phenoxy]-7-azaspiro[3.5]nonan-7-yl]pyrimidine-5-carboxamide], the “apoptosis in 22RV1 FL-AR^hi cells as compared to parental 22RV1 FL-AR^low cells” value in test [2] is “highly apoptotic”. Moreover, in test [2] (Homo sapiens, 22RV1 cells overexpressing FL-AR (FL-AR^hi), 24 or 48 hours), the EC50 was 126 nM. Also, the GI50 in test [3] is under 500 nM.
